Laboratory results as given in patent US20240024372A1, “COMPOUNDS AND METHODS TO TREAT CYSTIC FIBROSIS” (City of Hope, priority 2020, published 2024).

Test system: HuBEC cells
Assay: Uptake of BODIPY-labeled exosomes by HuBEC (light microscopy)
Format: cell-based, human
Details: HuBEC pre-treated with 200 μM Genistein, 37° C., 30 minutes, then BODIPY-labeled MSC-derived CFZF-VPR exosomes 3 h
Protocol: FIGS. 7A-7B show exosome uptake inhibition. FIG. 7A: To study the pathway of exosome uptake, HuBEC cells were pre-treated with 200 μM of Genistein and incubated at 37° C. for 30 minutes before exosome addition, and then incubated with BODIPY-labeled exosomes at 37° C. for 3 h. FIG. 7B: Uptake was quantified by determining the percentage of BODIPY-fluorescence intensity.
Exosome labeling. Exosomal membrane was labeled with BODIPY TR ceramide, according to the manufacturer's protocol (Molecular Probes/Invitrogen Life Technologies, Carlsbad, California, USA). Briefly, 5e+10 exosomes were stained with 10 μmol/L BODIPY TR ceramide. Excess fluorescent dye was removed by using Exosome Spin Columns (Life Technologies, Carlsbad, California, USA). BODIPY-labeled exosomes were dropped on 10e+3 cells and incubated in exosome depleted medium at 37° C. and 5% CO2. Bodipy-labeled exosomes uptake was evaluated by light microscopy.
Light microscopy and imaging. Cells were cultivated fixed with BD cytofix/Cytoperm™ fixation/permeabilization Kit (Cat. No. 554715 BD bioscience, Franklin Lakes, NJ, USA) at room temperature for 20 minutes and then stained with fluorescent 488-Phalloidin (green) for actin using the manufacturer's recommendations (Molecular Probes/Invitrogen Life Technologies). Fluorescence images were collected on Zeiss LSM-700 confocal microscope. […]

O=c1c(-c2ccc(O)cc2)coc2cc(O)cc(O)c12 [genistein]
inhibition of exosome uptake (BODIPY-fluorescence intensity): inhibition of the MSC derived CFZF-VPR exosome uptake
